{
  "source": "patent US6147076A",
  "about": "“Analogues of N-acetylardeemin, method of preparation and uses thereof” (priority 1996, dated 2000)",
  "key": {"CCRF-CEM cells [1]": {"tested_on": "CCRF-CEM cells", "test": "Two drug combination study of vinblastine and 5-N-acetylardeemin on CCRF-CEM, 72 hr, XTT assay", "type": "cell-based", "details": "Homo sapiens, Table 2, drug alone, read-out: Dm (median-effect concentration)", "source_text": "CCRF-CEM Cell Line at 72-HR Exposure Time. Based on XTT"}, "[2]": {"tested_on": "vinblastine-resistant CCRF-CEM cells (CCRF-CEM/VBL100)", "test": "Two drug combination study of vinblastine and 5-N-acetylardeemin on vinblastine-resistant CCRF-CEM, 72 hr, XTT assay", "type": "cell-based, human", "parameters": "dose of drug at FA (drug alone): unit not given here", "details": "for Dose reduction index / dose of drug at FA (drug alone): Table 3"}, "CCRF-CEM/VM-1 cells [3]": {"tested_on": "CCRF-CEM/VM-1 cells", "test": "cells", "details": "Homo sapiens, read-out: IC50 of VBL in the presence of reversing agent (C)"}, "P388/0 tumor": {"tested_on": "P388/0 tumor", "test": "Combination therapy of adriamycin, vinblastine and des-Me-N-acetyl-ardeemin in B6D2F1 mice bearing P388/0 tumor", "details": "VBL 3.0 mg/kg", "procedure": "^a Male BDF mice were inoculated with P388/O, 10^6 cell/mouse,\ni.p. on day 0; and started treatment on day 1, i.p., Q5Dx5, besides mice\nwith dose VBL 3.0 and VBL 3.0 mg/kg + DMNAA 50 mg/kg, only one injection\ni.p., on day 1. There were five mice at every dose and ten in the control"}, "CCRF-CEM/VBL100 cells": {"tested_on": "CCRF-CEM/VBL100 cells", "details": "human, ccrf-cem/vbl100 vs ccrf-cem"}, "CCRF-CEM/VBL cells": {"tested_on": "CCRF-CEM/VBL cells", "test": "IC50 of vinblastine in CCRF-CEM/VBL with/without MDR reversing agent", "type": "cell-based, human"}, "[4]": {"tested_on": "vinblastine-resistant CCRF-CEM cells (CCRF-CEM/VBL100)", "test": "Two drug combination study of vinblastine and 5-N-acetylardeemin on vinblastine-resistant CCRF-CEM, 72 hr, XTT assay", "type": "cell-based, human", "source_text": "Vinblastine-resistant CCRF-CEM Cell Line at 72-HR Exposure Time.\nBased on XTT Assay. (large-scale study)"}, "CCRF-CEM/VM-1 cells [5]": {"tested_on": "CCRF-CEM/VM-1 cells", "details": "IC50 of VBL, CCRF-CEM/VM-1 to CCRF-CEM"}, "CCRF-CEM cells [6]": {"tested_on": "CCRF-CEM cells", "test": "Cytotoxicity / growth inhibition of CCRF-CEM leukemic cells", "details": "Homo sapiens, wild type CCRF-CEM"}, "CCRF-CEM cells [7]": {"tested_on": "CCRF-CEM cells", "test": "IC50 of vinblastine in CCRF-CEM with/without MDR reversing agent", "type": "cell-based", "details": "Homo sapiens, agent concentration added given in Table 6B, read-out: IC50 of VBL in the presence of reversing agent (A)"}, "cultured macrophages": {"tested_on": "cultured macrophages", "details": "read-out: IC50, inhibition of cholesterol ester formation; cited from earlier work"}, "DC-3F/ADII cells": {"tested_on": "DC-3F/ADII cells", "test": "cells", "details": "Mesocricetus auratus, DC3F, read-out: IC50 for inhibiting cell growth"}, "DC-3F hamster lung cells": {"tested_on": "DC-3F hamster lung cells", "test": "Cytotoxicity toward DC-3F hamster lung cells", "details": "Mesocricetus auratus, DC3F, read-out: IC50 for inhibiting cell growth, Table 7, DC-3F"}, "[8]": {"biological_target": "acyl CoA:cholesterol acyltransferase (ACAT)", "details": "read-out: Ki (with respect to oleoyl-CoA); cited from earlier work"}},
  "note": "Values joined by “and” are separate entries in the source; they are usually repeats but may differ in a detail not shown here. Equal entries are not always repeated. Where two headings read alike, the source gives them in different places.",
  "data": [
    {"compound": "CC[C@]1(O)C[C@@H]2CN(CCc3c([nH]c4ccccc34)[C@@](C(=O)OC)(c3cc4c(cc3OC)N(C)[C@H]3[C@@](O)(C(=O)OC)[C@H](OC(C)=O)[C@]5(CC)C=CCN6CC[C@]43[C@@H]65)C2)C1", "note": "[Vinblastine]", "values": [
      {"measurement": "IC50", "setting": "CCRF-CEM cells [1]", "result": 1.68, "unit": "nM"},
      {"measurement": "IC50", "setting": "[2]; Homo sapiens, CCRF-CEM, Table 3, drug alone, read-out: Dm (median-effect concentration)", "result": 371, "unit": "nM"},
      {"measurement": "Dose reduction index", "setting": "[2]; FA .9843", "result": 41.85},
      {"measurement": "dose of drug at FA (drug alone)", "setting": "[2]; FA .9843", "result": 2.092},
      {"measurement": "Dose reduction index", "setting": "[2]; FA .9861", "result": 22.03},
      {"measurement": "dose of drug at FA (drug alone)", "setting": "[2]; FA .9861", "result": 2.203},
      {"measurement": "Dose reduction index", "setting": "[2]; FA .9898", "result": 10.05},
      {"measurement": "dose of drug at FA (drug alone)", "setting": "[2]; FA .9898", "result": 2.512},
      {"measurement": "IC50", "setting": "CCRF-CEM/VM-1 cells [3]", "result": 0.45, "unit": "nM"},
      {"measurement": "% ILS", "setting": "P388/0 tumor; one injection", "result": "+64%"},
      {"measurement": "Days survived", "setting": "P388/0 tumor; one injection, individual mice 1-5, listed as VBL", "result": "5.0 days and 6.0 days and 9.5 days and 15.5 days and 16.0 days"},
      {"measurement": "MST", "setting": "P388/0 tumor; one injection, toxic deaths excluded", "result": 13.67, "unit": "days"},
      {"measurement": "deaths of toxicity", "setting": "P388/0 tumor; day 5 and 6", "result": "Two mice died of toxicity of drug"},
      {"measurement": "resistance of CCRF-CEM/VBL100 compared with CCRF-CEM", "setting": "CCRF-CEM/VBL100 cells", "result": 220, "unit": "fold"},
      {"measurement": "IC50", "setting": "CCRF-CEM/VBL cells; Homo sapiens, CCRF-CEM, agent concentration added given in Table 6B, read-out: IC50 of VBL in the presence of reversing agent (B)", "result": 832, "unit": "nM"},
      {"measurement": "(b)/(a)", "setting": "CCRF-CEM/VBL cells; IC50 of VBL, CCRF-CEM/VBL to CCRF-CEM", "result": 761},
      {"measurement": "dose reduction in combination", "setting": "[4]; 1:2000 ratio, at 98.4% inhibition", "result": 41, "unit": "fold"},
      {"measurement": "IC50", "setting": "[4]; Homo sapiens, CCRF-CEM, Table 4 (large-scale study), drug alone, read-out: Dm (median-effect concentration)", "result": 393, "unit": "nM"},
      {"measurement": "(C)/(A)", "setting": "CCRF-CEM/VM-1 cells [5]", "result": 0.54},
      {"measurement": "IC50", "setting": "CCRF-CEM cells [6]", "result": 1.7, "unit": "nM"},
      {"measurement": "IC50", "setting": "CCRF-CEM cells [7]", "result": 0.83, "unit": "nM"}
    ]},
    {"compound": "C=CC(C)(C)C12Nc3ccccc3C1(O)CC1C(=O)N3C(CC4(O)c5ccccc5NC34C(C)(C)C=C)C(=O)N12", "note": "(stereo not shown) [Gypsetin]", "values": [
      {"measurement": "IC50", "setting": "cultured macrophages", "result": 650, "unit": "nM"},
      {"measurement": "IC50", "setting": "DC-3F/ADII cells", "result": 2250, "unit": "nM"},
      {"measurement": "IC50", "setting": "DC-3F hamster lung cells", "result": 3780, "unit": "nM"},
      {"measurement": "Ki", "setting": "[8]", "result": 5500, "unit": "nM"}
    ]}
  ]
}
